Measured values taken from paper PMC7600243, “Live Imaging of Phosphate Levels in Arabidopsis Root Cells Expressing a FRET-Based Phosphate Sensor” (Plants, 2020).

Target: PiBP (Pi binding bacterial periplasmic Binding Protein) of the FLIPPi sensors FLIPPi-30m and FLIPPi-4µ
Conditions: pH 7.0; 20 mM Tris-HCl or MOPS; in planta, externally applied Pi buffer 0-200 mM; inhibitor dose response fit, variable slope

SMILES: O=P(O)(O)O [Pi, inorganic phosphate]
- Kd: 35 mM
